Data set [1] can be described thus: Inhibition of bacterial N-terminal His-tagged TEV protease site linked GOB-18 (1 to 290 amino acids) expressed in Escherichia coli Transetta (DE3) preincubated for 10 mins followed by FC5 fluorescent substrate addition by fluorescence assay. Details: species or system Bacteria; call rule not given here.
Data set [2] has as its target Beta-lactamase TEM (Bacteria, UniProt P62593). Put plainly: Inhibition of bacterial N-terminal His-tagged TEV protease site linked TEM-1 (24 to 286 amino acids) expressed in Escherichia coli Transetta (DE3) preincubated for 10 mins followed by FC5 fluorescent substrate addition by fluorescence assay.
Data set [3] is described as follows: Inhibition of bacterial N-terminal His-tagged TEV protease site linked AmpC (20 to 377 amino acids) expressed in Escherichia coli Transetta (DE3) preincubated for 10 mins followed by FC5 fluorescent substrate addition by fluorescence assay. Details: species or system Bacteria.
A short description of data set [4]: Inhibition of bacterial N-terminal His-tagged TEV protease site linked VIM-2 (27 to 266 amino acids) expressed in Escherichia coli Transetta (DE3) preincubated for 10 mins followed by FC5 fluorescent substrate addition by fluorescence assay. The arrangement: species or system Bacteria.
Data set [5] can be described thus: Inhibition of bacterial N-terminal His-tagged TEV protease site linked OXA-48 (1 to 265 amino acids) expressed in Escherichia coli Transetta (DE3) preincubated for 10 mins followed by FC5 fluorescent substrate addition by fluorescence assay. Details: species or system Bacteria.
Data set [6] is described as follows: Inhibition of bacterial N-terminal His-tagged TEV protease site linked KPC-2 (29 to 289 amino acids) expressed in Escherichia coli Transetta (DE3) preincubated for 10 mins followed by FC5 fluorescent substrate addition by fluorescence assay. Details: species or system Bacteria.
Data set [7] in a line: Inhibition of bacterial N-terminal His-tagged TEV protease site linked SFH1 (3 to 234 amino acids) expressed in Escherichia coli Transetta (DE3) preincubated for 10 mins followed by FC5 fluorescent substrate addition by fluorescence assay. The arrangement: species or system Bacteria.
The nature of data set [8]: Inhibition of bacterial N-terminal His-tagged TEV protease site linked NDM-1 (1 to 270 amino acids) expressed in Escherichia coli Transetta (DE3) preincubated for 10 mins followed by FC5 fluorescent substrate addition by fluorescence assay. Details: species or system Bacteria.
Data set [9] addresses Angiotensin-converting enzyme 2 (Homo sapiens, UniProt Q9BYF1). Put plainly: Inhibition of human C-terminal His/FLAG-tagged ACE-2 expressed in HEK293 cells at 100 uM preincubated for 10 mins followed by Mca-Ala-Pro-Lys(Dnp)-OH substrate addition by fluorescence assay relative to control. The format is cell-based. The settings on record: hek293, 100 µM.

From ChEMBL document CHEMBL4373692, “Structure-Based Development of (1-(3'-Mercaptopropanamido)methyl)boronic Acid Derived Broad-Spectrum, Dual-Action Inhibitors of Metallo- and Serine-β-lactamases” (J Med Chem, 2019) come the findings set out here.

As usually defined, the Ki is a dissociation constant, usually derived from enzyme kinetics or from competition with a known ligand. Read a low Ki as tighter binding.

Bounds are passed on as bounds.

Angiotensin-converting enzyme 2, sequence (Q9BYF1 whole entry): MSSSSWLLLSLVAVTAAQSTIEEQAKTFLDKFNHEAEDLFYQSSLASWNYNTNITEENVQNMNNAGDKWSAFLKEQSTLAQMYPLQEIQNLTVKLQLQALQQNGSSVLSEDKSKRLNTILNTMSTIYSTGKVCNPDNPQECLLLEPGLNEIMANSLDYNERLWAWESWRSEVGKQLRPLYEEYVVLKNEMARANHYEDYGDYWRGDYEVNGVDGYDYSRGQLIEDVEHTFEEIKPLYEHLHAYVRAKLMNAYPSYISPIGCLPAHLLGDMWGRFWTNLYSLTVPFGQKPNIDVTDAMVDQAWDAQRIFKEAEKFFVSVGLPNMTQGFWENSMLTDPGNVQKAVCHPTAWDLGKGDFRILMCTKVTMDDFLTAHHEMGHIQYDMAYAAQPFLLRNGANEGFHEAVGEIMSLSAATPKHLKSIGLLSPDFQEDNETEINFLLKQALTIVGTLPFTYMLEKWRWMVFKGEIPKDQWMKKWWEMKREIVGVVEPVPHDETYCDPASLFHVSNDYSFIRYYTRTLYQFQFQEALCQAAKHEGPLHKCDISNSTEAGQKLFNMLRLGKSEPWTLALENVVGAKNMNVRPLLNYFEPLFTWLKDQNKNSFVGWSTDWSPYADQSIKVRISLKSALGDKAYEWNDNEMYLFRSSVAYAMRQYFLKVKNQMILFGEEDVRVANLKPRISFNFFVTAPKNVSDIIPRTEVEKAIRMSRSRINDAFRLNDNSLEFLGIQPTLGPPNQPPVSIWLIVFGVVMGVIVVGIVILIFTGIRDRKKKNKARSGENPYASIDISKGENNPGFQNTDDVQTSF
Beta-lactamase TEM, sequence (P62593 whole entry, the tested form may be a part): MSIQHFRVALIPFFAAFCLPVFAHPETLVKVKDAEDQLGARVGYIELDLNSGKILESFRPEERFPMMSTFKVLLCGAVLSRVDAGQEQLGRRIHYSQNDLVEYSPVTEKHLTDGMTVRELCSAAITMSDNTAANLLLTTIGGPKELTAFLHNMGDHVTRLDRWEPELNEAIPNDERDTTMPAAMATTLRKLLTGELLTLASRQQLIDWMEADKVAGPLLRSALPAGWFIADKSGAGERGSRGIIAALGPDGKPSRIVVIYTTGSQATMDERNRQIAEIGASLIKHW

`O=C(N[C@@H](Cc1ccccc1)B(O)O)[C@@H](CS)N1C(=O)c2ccccc2C1=O`: the Ki in data set [1] is 32.1 µM; in data set [2], 32.8 µM; in data set [3], 27.4 µM; in [4], 2.41 µM; in [5], above 300 µM; in data set [6] it was 8.65 µM. In addition, the inhibition constant (Ki) in data set [7] stood at 7.76 µM; in data set [8], 57.7 µM.
Consider `CC(C)[C@@H](NC(=O)[C@H](C)CS)B(O)O`, for which the Ki in data set [1] is 58 µM; in data set [2] it was above 300 µM; in data set [3] it was above 300 µM; in data set [4], 0.7 µM; in [5] it was above 300 µM; in data set [6], 158 µM. Moreover, the Ki in [7] was found to be 110 µM; in data set [8], 25.6 µM. Besides, the “inhibition (INH)” value in data set [9] is on record as “Not Active”.
Regarding `CC(C)C[C@@H](NC(=O)[C@H](C)CS)B(O)O`, the Ki in [1] was 4.25 µM; in [2], 70.5 µM; in data set [3] it was 3.07 µM; in data set [4] it was 1.13 µM; in data set [5] it was above 300 µM; in data set [6], 18.4 µM. The inhibition constant Ki in data set [7] was 1.91 µM; in [8], 37.6 µM. Further, the “inhibition (INH)” value in data set [9] was “Not Active”.
In the case of `COc1ccc(C[C@H](NC(=O)[C@H](C)CS)B(O)O)cc1`, the Ki in data set [1] is 1.72 µM; in [2], 3.36 µM; in data set [3], 1.23 µM; in [4] it was 0.18 µM; in data set [5] it was 172 µM; in data set [6], 1.96 µM. Also, the Ki in data set [7] came out at 0.51 µM; in data set [8], 27.2 µM. The “inhibition (INH)” value in [9] is recorded as “Not Active”.
For `C[C@H](CS)C(=O)N[C@@H](Cc1ccc(F)cc1)B(O)O`, the Ki in [1] was 1.01 µM; in data set [2] it was 4.16 µM; in data set [3], 0.77 µM; in data set [4], 0.26 µM; in data set [5], 85.8 µM; in data set [6], 4.82 µM. In addition, the Ki in [7] was found to be 0.19 µM; in [8], 22.8 µM. In addition, the “inhibition (INH)” value in data set [9] is recorded as “Not Active”.
Turning to `C[C@H](CS)C(=O)NCC(=O)O`, the inhibitory constant (Ki) in [1] was above 300 µM; in data set [2] it was above 300 µM; in [3] it was above 300 µM; in data set [4], 1.68 µM; in [5] it was above 300 µM; in [6], 140 µM. In addition, the Ki in data set [7] was above 300 µM; in data set [8], 22.5 µM.
As for `C[C@H](CS)C(=O)N[C@H](B(O)O)c1ccc(F)cc1`, the inhibition constant (Ki) in data set [1] is 0.33 µM; in data set [2], 14.2 µM; in data set [3], 0.64 µM; in data set [4], 0.41 µM; in [5], above 300 µM; in data set [6] it was 2.02 µM. In addition, the results for the Ki in data set [7] and in [8] were 0.33 µM and 14.7 µM, respectively. For the same compound, in [9], the “inhibition (INH)” value is “Not Active”.
With `CCCC(=O)N[C@@H](Cc1ccccc1)B(O)O`, the Ki in [1] was 23.5 µM; in [2] it was above 300 µM; in data set [3], 33.4 µM; in [4], above 300 µM; in [5], above 300 µM; in [6], 107 µM. Besides, the Ki in data set [7] is 9.21 µM; in data set [8], above 300 µM.
Regarding `C[C@H](CS)C(=O)N[C@@H](B(O)O)c1ccc2ccccc2c1`, the Ki was 23.5 µM in data set [1]; 216 µM in data set [2]; 25.3 µM in data set [3]; 7.54 µM in [4]; above 300 µM in data set [5]; 12 µM in data set [6]. In addition, the Ki in data set [7] worked out at 9.75 µM; in [8], 101 µM. Also, the “inhibition (INH)” value in data set [9] was “Not Active”.
For `C[C@H](CS)C(=O)N[C@H](B(O)O)c1ccc2ccccc2c1`, the inhibition constant (Ki) in data set [1] is 17.9 µM; in data set [2], 2.03 µM; in data set [3], 20.2 µM; in [4], 0.72 µM; in data set [5] it was above 300 µM; in data set [6], 0.78 µM. For the same compound, the figures for the inhibitory constant (Ki) in [7] and in [8] were 11.1 µM and 13.1 µM, respectively. For the same compound, the “inhibition (INH)” value in [9] is given as “Not Active”.
For the compound `CC(C)C[C@H](NC(=O)[C@H](C)CS)B(O)O`, the inhibitory constant (Ki) was 11.1 µM in data set [1]; 171 µM in [2]; 17.7 µM in data set [3]; 0.85 µM in [4]; above 300 µM in [5]; 36.1 µM in [6]. Further, the Ki turned out to be 6.11 µM in data set [7] and 22.8 µM in data set [8]. The “inhibition (INH)” value in data set [9] is listed as “Not Active”.
In the case of `CCC(=O)N[C@@H](Cc1ccccc1)B(O)O`, the Ki was 252 µM in data set [1]; above 300 µM in [2]; 158 µM in data set [3]; above 300 µM in data set [4]; above 300 µM in [5]; above 300 µM in data set [6]. The Ki in [7] is 152 µM; in data set [8], above 300 µM.
For `O=C(CCS)N[C@H](Cc1coc2ccccc12)B(O)O`, the inhibition constant Ki is 2.5 µM in data set [1]; 35.7 µM in data set [2]; 4.47 µM in data set [3]; 0.33 µM in [4]; above 300 µM in data set [5]; 5.56 µM in data set [6]. The Ki in data set [7] is 0.63 µM; in data set [8] it was 16.5 µM. Besides, the “inhibition (INH)” value in data set [9] is listed as “Not Active”.
For `COc1ccc(C[C@@H](NC(=O)[C@H](C)CS)B(O)O)cc1`, the Ki in data set [1] was 2.5 µM; in [2], 80.7 µM; in [3] it was 1.18 µM; in data set [4] it was 0.56 µM; in [5] it was above 300 µM; in data set [6], 11.1 µM. In addition, the inhibition constant (Ki) was found to be 0.74 µM in data set [7] and 7.22 µM in data set [8]. Also, the “inhibition (INH)” value in [9] was “Not Active”.
Take `Cc1ccc([C@@H](NC(=O)[C@H](C)CS)B(O)O)cc1`: the Ki in data set [1] is 2.75 µM; in data set [2], 13.5 µM; in data set [3] it was 2.03 µM; in [4] it was 1.28 µM; in [5], above 300 µM; in data set [6] it was 11.5 µM. Besides, the results for the Ki in data set [7] and in data set [8] were 0.35 µM and 15.9 µM, respectively. Also, in data set [9], the “inhibition (INH)” value is on record as “Not Active”.
Take `O=C(CCS)N[C@@H](Cc1ccccc1)B(O)O`: the inhibition constant (Ki) in [1] worked out at 1.64 µM; in [2], 15.8 µM; in [3], 1.14 µM; in data set [4], 4.04 µM; in data set [5] it was 247 µM; in [6] it was 19.4 µM. Moreover, the figures for the Ki in data set [7] and in data set [8] were 0.89 µM and 191 µM, respectively.
For the compound `C[C@H](CS)C(=O)N[C@@H](B(O)O)c1ccc(F)cc1`, the inhibition constant (Ki) was 1.02 µM in [1]; 67.9 µM in [2]; 1.57 µM in data set [3]; 0.65 µM in [4]; above 300 µM in data set [5]; 7.08 µM in data set [6]. Besides, the Ki in [7] is 0.28 µM; in data set [8], 21.1 µM. The “inhibition (INH)” value in data set [9] is “Not Active”.
For the compound `CC(C)[C@H](NC(=O)[C@H](C)CS)B(O)O`, the Ki in data set [1] is 11.5 µM; in data set [2] it was 166 µM; in data set [3] it was 11.5 µM; in [4], 0.51 µM; in [5], above 300 µM; in data set [6] it was 5.35 µM. The Ki in data set [7] was 9.14 µM; in data set [8] it was 36.8 µM. The “inhibition (INH)” value in data set [9] is reported as “Not Active”.
As to `Cc1ccc([C@H](NC(=O)[C@H](C)CS)B(O)O)cc1`, the Ki in data set [1] is 2.78 µM; in [2] it was 2.41 µM; in [3] it was 1.99 µM; in [4], 3.28 µM; in data set [5] it was above 300 µM; in data set [6] it was 4.35 µM. In addition, the Ki was found to be 0.51 µM in [7] and 16.7 µM in data set [8]. The “inhibition (INH)” value in [9] is given as “Not Active”.
For `O=C(CS)N[C@H](Cc1coc2ccccc12)B(O)O`, the Ki was found to be 1.67 µM in data set [1]; 6.84 µM in [2]; 0.97 µM in data set [3]; 42.8 µM in data set [4]; 217 µM in data set [5]; 0.5 µM in data set [6]. Also, the inhibition constant (Ki) in [7] is 0.12 µM; in data set [8], 10.2 µM. Further, the “inhibition (INH)” value in data set [9] is listed as “Not Active”.
As for `CCC(=O)NCB(O)O`, the inhibitory constant (Ki) in data set [1] was above 300 µM; in data set [2], 36.3 µM; in data set [3], 291 µM; in data set [4], above 300 µM; in [5], above 300 µM; in data set [6], 86.1 µM. In addition, the inhibition constant Ki in [7] and in data set [8] was above 300 µM each time.
Turning to `O=C(CS)N[C@@H](Cc1ccccc1)B(O)O`, the inhibitory constant (Ki) in data set [1] was determined as 1.69 µM; in data set [2] it was 18.7 µM; in [3], 1.56 µM; in [4], 3.34 µM; in data set [5], 50.5 µM; in data set [6], 12.4 µM. In addition, the Ki was determined as 0.48 µM in data set [7] and 165 µM in data set [8].
For the compound `CCCC(=O)NCB(O)O`, the Ki was 12.1 µM in data set [1]; 100 µM in data set [2]; 58.5 µM in data set [3]; above 300 µM in [4]; 102 µM in data set [5]; 38.1 µM in data set [6]. Further, the Ki was 5.78 µM in data set [7] and above 300 µM in data set [8].
